The values that follow come from PubChem BioAssay AID338 (DTP/NCI, 2004).

The subject of the experiment is BDF1 mice, P388 leukemia (terephthalanilide-resistant), survival T/C. Description: NCI In Vivo Anticancer Drug Screen. Data for tumor model P388 Leukemia resistant to A Terephthalanilide; NSC 38280 (intraperitoneal) in B6D2F1 (BDF1) mice. The settings on record: endpoint: median survival time, higher = longer survival. The protocol: The antitumor activity of compounds was measured in mice bearing transplantable tumors. Survival or tumor size were measured and the results are expressed as the measurement made in the treated group (T) divided by the measurement made in the vehicle treated control group (C). The tumor model used in this assay is P388 Leukemia resistant to A Terephthalanilide; NSC 38280 (intraperitoneal) in B6D2F1 (BDF1) mice

Setting [1] is: dose: 50.0 mg/kg/injection, schedule: Q01DX010 (ip), vehicle: saline.
Where [2] appears, read: dose: 100.0 mg/kg/injection, schedule: Q01DX010 (ip), vehicle: saline.
Setting [3] is: dose: 200.0 mg/kg/injection, schedule: Q01DX010 (ip), vehicle: saline.
[4] abbreviates: dose: 62.5 mg/kg/injection, schedule: Q01DX010 (ip), vehicle: saline.
[5] abbreviates: dose: 125.0 mg/kg/injection, schedule: Q01DX010 (ip), vehicle: saline.
Setting [6] is: dose: 250.0 mg/kg/injection, schedule: Q01DX010 (ip), vehicle: saline.
The mark [7] stands for this setting: dose: 500.0 mg/kg/injection, schedule: Q01DX010 (ip), vehicle: saline.
The mark [8] stands for this setting: dose: 15.0 mg/kg/injection, schedule: Q01DX010 (ip), vehicle: saline.
[9] abbreviates: dose: 30.0 mg/kg/injection, schedule: Q01DX010 (ip), vehicle: saline.
[10] abbreviates: dose: 60.0 mg/kg/injection, schedule: Q01DX010 (ip), vehicle: saline.
Where [11] appears, read: dose: 6.0 mg/kg/injection, schedule: Q01DX010 (ip), vehicle: saline.
Setting [12] is: dose: 12.0 mg/kg/injection, schedule: Q01DX010 (ip), vehicle: saline.
The mark [13] stands for this setting: dose: 15.6 mg/kg/injection, schedule: Q01DX010 (ip), vehicle: saline.
The mark [14] stands for this setting: dose: 31.3 mg/kg/injection, schedule: Q01DX010 (ip), vehicle: saline.
Setting [15] is: dose: 25.0 mg/kg/injection, schedule: Q01DX010 (ip), vehicle: saline.
The mark [16] stands for this setting: dose: 20.0 mg/kg/injection, schedule: Q01DX010 (ip), vehicle: saline.
[17] abbreviates: dose: 8.0 mg/kg/injection, schedule: Q01DX010 (ip), vehicle: saline.
Setting [18] is: dose: 18.0 mg/kg/injection, schedule: Q01DX010 (ip), vehicle: saline.
[19] abbreviates: dose: 64.0 mg/kg/injection, schedule: Q01DX010 (ip), vehicle: saline.
[20] abbreviates: dose: 10.0 mg/kg/injection, schedule: Q01DX010 (ip), vehicle: saline.
Setting [21] is: dose: 5.0 mg/kg/injection, schedule: Q01DX010 (ip), vehicle: saline.
Setting [22] is: dose: 40.0 mg/kg/injection, schedule: Q01DX010 (ip), vehicle: saline.

Where “and” joins values, the source holds several entries; their conditions need not be identical. Equal values may be shown once. Toxic doses and inconclusive results are not listed.

On to `O=C(Nc1ccc(C2=NCCN2)cc1)c1cc(Cl)cc(C(=O)Nc2ccc(C3=NCCN3)cc2)c1`, for which the T/C reads like this: (dose: 140.0 mg/kg/injection, schedule: Q01DX010 (ip), vehicle: saline) 100 % of control; (dose: 210.0 mg/kg/injection, schedule: Q01DX010 (ip), vehicle: saline) 100 % of control; (dose: 315.0 mg/kg/injection, schedule: Q01DX010 (ip), vehicle: saline) 100 % of control; (dose: 473.0 mg/kg/injection, schedule: Q01DX010 (ip), vehicle: saline) 94 % of control.

With `CS(=O)(=O)OCC(O)C(O)C(O)C(O)COS(C)(=O)=O` (centres undefined), the T/C under setting [1] is 100 % of control; the T/C under setting [2] is 100 % of control; the T/C under setting [3] is 100 % of control; the T/C (dose: 400.0 mg/kg/injection, schedule: Q01DX010 (ip), vehicle: saline) is 100 % of control.

For the compound `O=CCC(O)C(O)C(O)CO` (centres undefined), the T/C reads like this: under setting [4], 110 % of control and 111 % of control; under setting [5], 100 % of control and 110 % of control; under setting [6], 110 % of control and 111 % of control; under setting [7], 115 % of control and 122 % of control.

As to `N#CCSc1ncnc2nc[nH]c12`, the T/C is 100 % of control under setting [8]; 100 % of control under setting [9]; 105 % of control and 109 % of control under setting [10]; 100 % of control (dose: 120.0 mg/kg/injection, schedule: Q01DX010 (ip), vehicle: saline).

`Nc1nc(N)c2nc(CNc3ccc(C(=O)NC(CCC(=O)O)C(=O)O)cc3)cnc2n1` (centres undefined): the T/C reads like this: (dose: 25.0 micrograms/kg/injection, schedule: Q01DX010 (ip), vehicle: other) 112 % of control; (dose: 50.0 micrograms/kg/injection, schedule: Q01DX010 (ip), vehicle: other) 112 % of control; (dose: 200.0 micrograms/kg/injection, schedule: Q01DX010 (ip), vehicle: other) 150 % of control.

`N=C(N)c1ccc(Nc2ccc(C(=N)N)cc2)cc1`: the T/C is, setting by setting: (dose: 3.0 mg/kg/injection, schedule: Q01DX010 (ip), vehicle: saline) 105 % of control; under setting [11], 100 % of control; under setting [12], 90 % of control.

Consider `O=C(Nc1ccc(NC(=O)Nc2ccc(C3=NCCN3)cc2)cc1)Nc1ccc(C2=NCCN2)cc1`, for which, under “dose: 110.0 mg/kg/injection, schedule: Q01DX010 (ip), vehicle: saline”, the T/C was 111 % of control.

For the compound `CCn1cnc2c(=S)nc[nH]c21`, the T/C is, setting by setting: under setting [13], 100 % of control and 105 % of control; under setting [14], 105 % of control and 110 % of control; under setting [4], 94 % of control and 100 % of control; under setting [5], 110 % of control.

Turning to `CSc1ncnc2nc[nH]c12`, the T/C is 104 % of control and 105 % of control under setting [15]; 100 % of control and 104 % of control under setting [1]; 100 % of control under setting [2]; 105 % of control and 109 % of control under setting [3].

Turning to `CN=C(NC)c1ccc(NC(=O)Nc2ccc(NC(=O)Nc3ccc(C(=NC)NC)cc3)cc2)cc1`, the T/C is 111 % of control (dose: 13.3 mg/kg/injection, schedule: Q01DX010 (ip), vehicle: saline); 94 % of control under setting [16]; 111 % of control under setting [9].

As for `O=C(Nc1ccc(NC2=NCCN2)cc1)c1ccc(C(=O)Nc2ccc(NC3=NCCN3)cc2)cc1`, the T/C reads like this: (dose: 2.0 mg/kg/injection, schedule: Q01DX010 (ip), vehicle: saline) 100 % of control and 106 % of control; (dose: 4.0 mg/kg/injection, schedule: Q01DX010 (ip), vehicle: saline) 150 % of control; under setting [17], 181 % of control.

Consider `S=c1nc[nH]c2nc[nH]c12`, for which the T/C was 105 % of control (dose: 5.0 mg/kg/injection, schedule: Q01DX010 (ip), vehicle: alkali diluted with saline); 100 % of control (dose: 5.0 mg/kg/injection, schedule: Q01DX Z (ip), vehicle: saline); 88 % of control (dose: 10.0 mg/kg/injection, schedule: Q01DX010 (ip), vehicle: alkali diluted with saline); 100 % of control and 104 % of control (dose: 10.0 mg/kg/injection, schedule: Q01DX Z (ip), vehicle: saline); 100 % of control (dose: 20.0 mg/kg/injection, schedule: Q01DX010 (ip), vehicle: alkali diluted with saline); 100 % of control and 109 % of control (dose: 20.0 mg/kg/injection, schedule: Q01DX Z (ip), vehicle: saline). Besides, the T/C reads like this: (dose: 40.0 mg/kg/injection, schedule: Q01DX010 (ip), vehicle: alkali diluted with saline) 94 % of control; (dose: 40.0 mg/kg/injection, schedule: Q01DX Z (ip), vehicle: saline) 122 % of control; (dose: 80.0 mg/kg/injection, schedule: Q01DX Z (ip), vehicle: saline) 154 % of control.

For the compound `Clc1ncnc2nc[nH]c12`, the T/C is 87 % of control (dose: 7.5 mg/kg/injection, schedule: Q01DX010 (ip), vehicle: saline); 87 % of control and 93 % of control under setting [8]; 87 % of control and 106 % of control under setting [9]; 93 % of control under setting [10].

For the compound `O=C(Nc1ccc(C2=NCCN2)cc1)c1ccc(C(=O)Nc2ccc(C3=NCCN3)cc2)cc1`, the T/C is 116 % of control (dose: 75.0 mg/kg/injection, schedule: Q01DX010 (ip), vehicle: saline) and 122 % of control (dose: 167.0 mg/kg/injection, schedule: Q01DX010 (ip), vehicle: saline).

Turning to `O=C(Nc1ccc(C2=NCCN2)cc1)c1ccc(C(=O)Nc2ccc(C3=NCCN3)cc2)c([N+](=O)[O-])c1`, the T/C was 110 % of control and 122 % of control under setting [11]; 110 % of control and 122 % of control under setting [17]; 122 % of control under setting [12]; 88 % of control and 105 % of control under setting [18].

Consider `O=C(Nc1ccc(C2=NCCN2)cc1)c1cccc(C(=O)Nc2ccc(C3=NCCN3)cc2)c1`, for which the T/C under setting [17] was 112 % of control and the T/C under setting [19] is 150 % of control.

Take `CC(=O)N(C)C`: the T/C under setting [4] is 90 % of control and 111 % of control; the T/C under setting [5] is 100 % of control; the T/C under setting [6] was 88 % of control; the T/C under setting [7] is 95 % of control and 100 % of control.

Regarding `CCCSc1ncnc2nc[nH]c12`, the T/C by setting is: under setting [14], 118 % of control; under setting [4], 112 % of control.

On to `Nc1nc(=S)c2[nH]cnc2[nH]1`, for which the T/C by setting is: (dose: 1.25 mg/kg/injection, schedule: Q01DX010 (ip), vehicle: saline) 162 % of control; (dose: 2.5 mg/kg/injection, schedule: Q01DX010 (ip), vehicle: saline) 150 % of control and 175 % of control; under setting [20], 112 % of control.

For the compound `CC(=O)Nc1ccc2nc3ccc(NC(C)=O)cc3[n+](-c3ccccc3)c2c1`, the T/C is 90 % of control (dose: 7.8 mg/kg/injection, schedule: Q01DX010 (ip), vehicle: saline) and 90 % of control under setting [13].

With `O=c1[nH]c(=O)n(C2CC(O)C(CO)O2)cc1F` (centres undefined), the T/C under setting [21] was 100 % of control; the T/C under setting [20] is 90 % of control and 104 % of control; the T/C under setting [16] was 90 % of control and 113 % of control; the T/C under setting [22] was 104 % of control and 118 % of control; the T/C (dose: 80.0 mg/kg/injection, schedule: Q01DX010 (ip), vehicle: saline) is 159 % of control.

Consider `CC1CN=C(c2ccc(NC(=O)c3cccc(C(=O)Nc4ccc(C5=NCC(C)N5)cc4)c3)cc2)N1` (centres undefined), for which the T/C is 100 % of control under setting [12]; 100 % of control under setting [18]; 100 % of control (dose: 27.0 mg/kg/injection, schedule: Q01DX010 (ip), vehicle: saline); 88 % of control under setting [22].

`c1ccc(CNc2ncnc3[nH]ncc23)cc1`: the T/C is 90 % of control under setting [17]; 90 % of control and 95 % of control (dose: 16.0 mg/kg/injection, schedule: Q01DX010 (ip), vehicle: saline); 90 % of control and 100 % of control (dose: 32.0 mg/kg/injection, schedule: Q01DX010 (ip), vehicle: saline); 90 % of control and 105 % of control under setting [19].

On to `CCN(CC)CCNc1ccc(C)c2sc3ccccc3c(=O)c12`, for which the T/C is, setting by setting: under setting [15], 105 % of control and 122 % of control; under setting [2], 100 % of control.

`CC1CCOS(=O)O1` (centres undefined): the T/C is 100 % of control under setting [20], 95 % of control under setting [16] and 100 % of control under setting [22].

As to `CN(N=O)C(N)=O`, the T/C is 113 % of control under setting [21] and 118 % of control under setting [16].
